Laboratory results reported in US20220073496A1, “NOVEL QUINOLINE DERIVATIVE INHIBITOR” (Nanjing Transthera Biosciences Co., Ltd., priority 2018, published 2022).
Where two headings read alike, the source gives them in different places.

How the values were obtained:
[1] = Stability in liver microsome of dogs; assay type: in vitro ADME; details: Dog liver microsome 0.5 mg protein/mL, compound 1 μM, 37° C.; for half-life at 1 μM / microsomal CLint at 1 μM: liver microsomes
Protocol: Assay 1: Stability assessment of the compounds of the present invention in liver microsome of mice and dogs
Test substances: the compounds of the present invention, wherein the structures and preparations thereof were as described above.
The composition of the incubation system:
Preparation of Test Substances:
An appropriate amount of the compound was accurately weighed and dissolved in DMSO to prepare a 5.0 mM stock solution. The 5.0 mM stock solution was diluted to 1.0 mM with DMSO, and finally diluted with water to a 10 μM test substance working solution for use (the DMSO content in the reaction system was 0.1%).
(1) The liver microsome (20 mg protein/mL) was taken out from the −80° C. refrigerator, pre-incubated at 37° C. with a water-bathing constant temperature vibrator for 3 minutes, and melted for use.
(2) A mixed solution of the incubation system (excluding compounds and β-NADPH) according to the above “composition of the incubation system” for the assay was prepared, and pre-incubated at 37° C. with a water-bathing constant temperature vibrator for 2 minutes.
(3) Control group (excluding β-NADPH): 30 μL of water and 30 μL of compound working solution (10 μM) were added to 240 μL of the mixed solution of the incubation system of step (2), and vortexed for 30 seconds to mix well. The total reaction volume was 300 μL. A duplicate sample was prepared. The sample was incubated at 37° C. with a water-bathing constant temperature vibrator. The timekeeping began and the sampling time points were set at 0 minute and 60 minutes.
(4) Sample group: 70 μL of β-NADPH solution (10 mM) and 70 μL of compound working solution (10 μM) were added to 560 μL of the mixed solution of step (2). The total reaction volume was 700 μL. The resulting mixture was vortexed for 30 seconds to mix well. A duplicate sample was prepared. The sample was incubated at 37° C. with a water-bathing constant temperature vibrator. The timekeeping began and the sampling time points were set at 0 minute, 5 minutes, 10 minutes, 20 minutes, 30 minutes, and 60 minutes after timekeeping.
(5) After vortexing for 3 minutes, the sample was centrifuged at 4000 rpm for 10 minutes.
(6) 50 μL of the supernatant was taken and 150 μL of water was added. The resulting mixture was vortexed to mix well, and analyzed by LC/MS/MS.
The half-life (t1/2) and clearance rate (Cl) were calculated using the following first-order kinetic formula:
Vd=1/protein content in liver microsome
Note: k was the slope of the logarithm of the remaining amount of the compound versus time, and Vd was the apparent distribution volume.

Rat PK evaluation = assay type: in vivo; details: SD rats; for Vz_obs iv (apparent distribution volume) / bioavailability / AUC(0-t) / clearance / half-life: n = 3; for bioavailability / AUC(0-t) / clearance / half-life / Tmax: rat, plasma; for bioavailability: read-out: F % (absolute bioavailability); for clearance: read-out: Cl_obs iv (clearance rate) (converted); for Tmax: n = 3, median, read-out: Tmax po (time to peak plasma concentration)
Protocol: Assay 2: Rat PK Evaluation for the Compounds of the Present Invention
Animal Administration and Sample Collection:
(§1) The test compounds 14, 15, 16, 20, 29, 30, 31, 32, 33, 34, 36, 37, 47 and 48 were dissolved in 5% DMSO+20% (30% solutol)+75% saline to prepare the compound solutions. Each of the compound solutions was intragastrically administered to SD rats at a dose of 5.0 mg/kg. The time points of blood collection were: 15 minutes, 30 minutes, 1 hour, 2 hours, 4 hours, 6 hours, 8 hours, 24 hours, 30 hours, and 48 hours.
The test compounds 38, 39, 40 and 41 were dissolved in 5% NMP+5% Tween-80+90% saline to prepare the compound solutions. Each of the compound solutions was intragastrically administered to SD rats at a dose of 5.0 mg/kg. The time points of blood collection were: 15 minutes, 30 minutes, 1 hour, 2 hours. 4 hours, 6 hours, 8 hours, 24 hours, 30 hours, and 48 hours.
as §1, with “was” for “was intragastrically”, “administered by intravenous bolus injection” for “administered”, “1” for “5.0”, “were: 5 minutes,” for “were:”, “hours,” for “hours, 30 hours,”
The test compounds 38, 39, 40 and 41 were dissolved in 5% NMP+5% Tween-80+90% saline to prepare the compound solutions. Each of the compound solutions was administered by intravenous bolus injection to SD rats at a dose of 1 mg/kg. The time points of blood collection were: 5 minutes, 15 minutes, 30 minutes, 1 hour, 2 hours, 4 hours, 6 hours, 8 hours, 24 hours, and 48 hours.
The animal was fixed. The tail was heated in a water bath pot 10 minutes before each time point. About 100 μL of blood was collected through the tail vein. The blood was collected and placed in an anti-coagulation tube containing EDTA-K2. The blood sample was centrifuged at 8000 rpm for 6 minutes at 4° C. to obtain a plasma sample. The plasma was prepared within 30 minutes after the blood collection. The plasma was stored in a −80° C. refrigerator before testing.
The sample to be tested was taken out from the −80° C. refrigerator, naturally melted at room temperature and vortexed for 5 minutes. 20 μL of plasma sample was accurately pipetted into a 1.5 mL centrifuge tube. 200 μL of an internal standard working solution (a solution of tolbutamide in methanol) having a concentration of 100 ng/mL was added and mixed well. The mixture was vortexed for 5 minutes, and centrifuged at 12000 rpm for 5 minutes. 50 μL of the supernatant was accurately pipetted into a 96-well plate pre-filled with 150 μL/well of water. The plate was vortexed for 5 minutes and mixed well, and then the LC-MS/MS determination and analysis were performed.
The concentration of the test substance was output using Analyst 1.6.3 from AB Company. Parameters such as mean, standard deviation, and coefficient of variation were calculated with Microsoft Excel (direct outputs from Analyst 1.6.3 were not calculated), and the PK parameters were calculated using Pharsight Phoenix 6.1 software NCA (Tmax was the median).

[2] = IV 1 mg/kg, read-out: AUClast iv (area under the drug-time curve from 0 to 48 hours)
[3] = IV 1 mg/kg, read-out: tz1/2 iv (terminal elimination half-life) (converted)
[4] = PO 5 mg/kg, read-out: AUClast po (area under the drug-time curve from 0 to 48 hours)
[5] = PO 5 mg/kg, read-out: tz1/2 po (terminal elimination half-life) (converted)

half-life at 1 μM [1] [h]	microsomal CLint at 1 μM [1] [µL/min/mg]	Vz_obs iv (apparent distribution volume) (Rat PK evaluation; IV 1 mg/kg) [L/kg]	bioavailability (Rat PK evaluation; IV 1 mg/kg, PO 5 mg/kg) [%]	AUC(0-t) (Rat PK evaluation; [2]) [ng·h/mL]	clearance (Rat PK evaluation; IV 1 mg/kg) [mL/min/kg]	half-life (Rat PK evaluation; [3]) [h]	Tmax (Rat PK evaluation; PO 5 mg/kg) [h]	AUC(0-t) (Rat PK evaluation; [4]) [ng·h/mL]	half-life (Rat PK evaluation; [5]) [h]	t1/2 [1]	SMILES
8.25	2.8	0.12	35.6	48600	0.35	4.13	1	86400	5.67	–	COc1cc2nccc(Oc3cnc(NC(=O)c4nn(C(C)C)cc(-c5ccc(F)cc5)c4=O)nc3)c2cc1OC [Compound 16, N-(5-((6,7-dimethoxyquinolin-4-yl)oxy)pyrimidine-2-yl)-5-(4-fluorophenyl)-1-isopropyl-4-oxo-1,4-dihydropyridazine-3-carboxamide]
6.08	3.8	0.18	53.3	29100	0.667	3.1	6	77900	5.4	–	COc1cc2nccc(Oc3cnc(NC(=O)c4cn(C(C)C)cc(-c5ccc(F)cc5)c4=O)nc3)c2cc1OC [Compound 20, N-(5-((6,7-dimethoxyquinolin-4-y)oxy)pyrimidine-2-yl)-5-(4-fluorophenyl)-1-isopropyl-4-oxo-1,4-dihydropyridin-3-carboxamide]
2.18	10.6	0.42	59.1	78600	0.6	13.7	4	246000	12.2	–	COc1cc2nccc(Oc3ccc(NC(=O)c4nn(C(C)C)cc(-c5ccc(F)cc5)c4=O)cn3)c2cc1OC [Compound 29, N-(6-((6,7-dimethoxyquinolin-4-yl)oxy)pyridin-3-yl)-1-isopropyl-4-oxo-5-para-fluorophenyl-1,4-dihydropyridazine-3-carboxamide]
0.938	24.6	0.30	78.7	41400	0.4	8.68	6	152000	13.4	–	COc1cc2nccc(Oc3ccc(NC(=O)c4cn(C5CC5)cc(-c5ccc(F)cc5)c4=O)nc3)c2cc1OC [Compound 30, N-(5-((6,7-dimethoxyquinolin-4-yl)oxy)pyridin-2-yl)-1-cyclopropyl-4-oxo-5-para-fluorophenyl-1,4-hydropyridin-3-carboxamide]
–	–	0.14	27.7	224000	0.05	32.6	4	310000	19.2	→∞	COc1cc2nccc(Oc3ccc(NC(=O)c4nn(C5CC5)cc(-c5ccc(F)cc5)c4=O)nc3)c2cc1OC [Compound 31]
3.5	6.6	0.23	75.4	23900	0.75	3.74	4	90500	5.04	–	COc1cc2nccc(Oc3cnc(NC(=O)c4cn(C5CC5)cc(-c5ccc(F)cc5)c4=O)nc3)c2cc1OC [Compound 32, 1-cyclopropyl-N-(5-((6,7-dimethoxyquinolin-4-yl)oxy)pyrimidine-2-yl)-5-(4-fluorophenyl)-4-oxo-1,4-dihydropyridin-3-carboxamide]
–	–	0.146	31.7	55700	0.3	5.47	2	88800	4.73	→∞	COc1cc2nccc(Oc3cnc(NC(=O)c4nn(C5CC5)cc(-c5ccc(F)cc5)c4=O)nc3)c2cc1OC [Compound 33]
8.25	2.8	0.15	80.4	81000	0.217	7.46	4	321000	8.31	–	COc1cc2nccc(Oc3ncc(NC(=O)c4nn(C(C)C)cc(-c5ccc(F)cc5)c4=O)cn3)c2cc1OC [Compound 34, N-(2-((6,7-dimethoxyquinolin-4-yl)oxy)pyrimidine-5-yl)-5-para-fluorophenyl-1-isopropyl-4-oxo-1,4-dihydropyridazine-3-carboxamide]
1.93	12	0.095	57.5	167000	0.0967	11.6	4	463000	12.7	–	COc1cc2nccc(Oc3ccc(NC(=O)c4nn(C5CC5)cc(-c5ccc(F)cc5)c4=O)cn3)c2cc1OC [Compound 36]
2.82	8.2	0.12	78.7	69700	0.233	5.98	4	273000	7.73	–	COc1cc2nccc(Oc3ncc(NC(=O)c4nn(C5CC5)cc(-c5ccc(F)cc5)c4=O)cn3)c2cc1OC [Compound 37, 1-cyclopropyl-N-(2-((6,7-dimethoxyquinolin-4-yl)oxy)pyrimidine-5-yl)-5-para-fluorophenyl-4-oxo-1,4-dihydropyridazine-3-carboxamide]
